IC50 data for 27 compounds are collected here from patent publication US11149018B2, “Substituted N-arylethyl-2-aminoquinoline-4-carboxamides and use thereof” (Bayer Aktiengesellschaft, priority 2017, dated 2021).

For this assay, the target named is FP receptor (Homo sapiens (Human), UniProt P43088). Kind of assay: In vitro test of inhibition of human FP receptor activity (PGF2α-induced calcium flux in FP-expressing CHEM1 cells). Format: cell-based. Particulars: PGF2α 2 nM, some mean values of multiple determinations. Put shortly: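 FP antagonism in FP-expressing CHEM1 cells loaded with Fluo-8. Compound preincubated 10 min at 37° C, then receptor stimulated with 2 nM (final) PGF2α in calcium-free Tyrode with 2 mM CaCl2.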
Chain of FP receptor (P43088 whole entry): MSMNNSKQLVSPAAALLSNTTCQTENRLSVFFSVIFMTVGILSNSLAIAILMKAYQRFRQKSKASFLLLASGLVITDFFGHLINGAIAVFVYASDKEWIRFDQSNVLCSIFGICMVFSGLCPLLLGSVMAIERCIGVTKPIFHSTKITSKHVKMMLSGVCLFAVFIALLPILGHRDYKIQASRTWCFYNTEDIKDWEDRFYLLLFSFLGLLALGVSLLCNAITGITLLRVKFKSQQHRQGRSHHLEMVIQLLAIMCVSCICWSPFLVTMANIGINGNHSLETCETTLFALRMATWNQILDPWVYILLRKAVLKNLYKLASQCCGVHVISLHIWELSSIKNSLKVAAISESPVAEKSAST
(In general: Calcium flux is commonly read through the fluorescence of an indicator in the cells.)
The IC50 is the midpoint of a concentration-inhibition curve. Regarding `Cc1c(N2CC[C@@H](F)C2)nc2ccc(Br)cc2c1C(=O)NCC(CCC(=O)O)c1ccccc1Cl` (single isomer, unassigned; (+)) [Example 67], the IC50 came to 6.5 nM.
The same measure for `Cc1c(N2CC[C@@H](F)C2)nc2ccc(Br)cc2c1C(=O)NCC(CCC(=O)O)c1ccccc1Cl` (single isomer, unassigned; (+)) [Example 68]: 14 nM; for `Cc1c(N2CCC[C@H]2C)nc2ccc(Br)cc2c1C(=O)NCC(CCC(=O)O)c1ccccc1Cl` (single isomer, unassigned; (+)) [Example 82]: 3.9 nM.
The same measure for `Cc1c(N2CCC[C@H]2C)nc2ccc(Br)cc2c1C(=O)NCC(CCC(=O)O)c1ccccc1Cl` (single isomer, unassigned; (+)) [Example 83]: 6.4 nM; for `Cc1c(N2CCCCC2)nc2ccc(Br)cc2c1C(=O)NCC(CCC(=O)O)c1ccccc1C(F)(F)F` (single isomer, unassigned; (+)) [Example 113, (+)-5-({[6-Bromo-3-methyl-2-(piperidin-1-yl)quinolin-4-yl]carbonyl}amino)-4-[2-(trifluoromethyl)phenyl]pentanoic acid]: 9.9 nM.
The same measure for `Cc1c(N2CCCC2)nc2ccc(Br)cc2c1C(=O)NCC(CCC(=O)O)c1ccccc1C(F)(F)F` (single isomer, unassigned; (+)) [Example 115, (+)-5-({[6-Bromo-3-methyl-2-(pyrrolidin-1-yl)quinolin-4-yl]carbonyl}amino)-4-[2-(trifluoromethyl)phenyl]pentanoic acid]: 29 nM.
Turning to `Cc1c(N2CCCC(F)(F)C2)nc2ccc(Br)cc2c1C(=O)NCC(CCC(=O)O)c1ccccc1C(F)(F)F` (single isomer, unassigned; (+)) [Example 119, (+)-5-({[6-Bromo-2-(3,3-difluoropiperidin-1-yl)-3-methylquinolin-4-yl]carbonyl}amino)-4-[2-(trifluoromethyl)phenyl]pentanoic acid], the IC50 was determined as 14 nM.
The same measure for `Cc1c(N2CCCCCC2)nc2ccc(Br)cc2c1C(=O)NCC(CCC(=O)O)c1ccccc1C(F)(F)F` (single isomer, unassigned; (+)) [Example 122, (+)-5-({[2-(Azepan-1-yl)-6-bromo-3-methylquinolin-4-yl]carbonyl}amino)-4-[2-(trifluoromethyl)phenyl]pentanoic acid]: 6.7 nM.
The same measure for `Cc1c(N2CCCCC2)nc2ccc(Br)cc2c1C(=O)NCC(CCC(=O)O)c1ccccc1OC(F)(F)F` (single isomer, unassigned; (+)) [Example 128, (+)-5-({[6-Bromo-3-methyl-2-(piperidin-1-yl)quinolin-4-yl]carbonyl}amino)-4-[2-(trifluoromethoxy)phenyl]pentanoic acid]: 3.8 nM.
The same measure for `Cc1c(N2CCCC2)nc2ccc(Br)cc2c1C(=O)NCC(CCC(=O)O)c1ccccc1OC(F)(F)F` (single isomer, unassigned; (+)) [Example 131, (+)-5-({[6-Bromo-3-methyl-2-(pyrrolidin-1-yl)quinolin-4-yl]carbonyl}amino)-4-[2-(trifluoromethoxy)phenyl]pentanoic acid]: 9.8 nM.
With `Cc1c(N2CCCC(F)(F)C2)nc2ccc(Br)cc2c1C(=O)NCC(CCC(=O)O)c1ccccc1OC(F)(F)F` (single isomer, unassigned; (+)) [Example 134, (+)-5-({[6-Bromo-2-(3,3-difluoropiperidin-1-yl)-3-methylquinolin-4-yl]carbonyl}amino)-4-[2-(trifluoromethoxy)phenyl]pentanoic acid], the IC50 was 4.9 nM.
As for `Cc1c(N2CCCCCC2)nc2ccc(Br)cc2c1C(=O)NCC(CCC(=O)O)c1ccccc1OC(F)(F)F` (single isomer, unassigned; (+)) [Example 137, (+)-5-({[2-(Azepan-1-yl)-6-bromo-3-methylquinolin-4-yl]carbonyl}amino)-4-[2-(trifluoromethoxy)phenyl]pentanoic acid], the figure is 3.8 nM.
The same measure for `Cc1c(N2CCCCC2)nc2ccc(Br)cc2c1C(=O)NCC(CCC(=O)O)c1cccc(F)c1Cl` (single isomer, unassigned; (+)) [Example 143, (+)-5-({[6-Bromo-3-methyl-2-(piperidin-1-yl)quinolin-4-yl]carbonyl}amino)-4-(2-chloro-3-fluorophenyl)pentanoic acid]: 9.3 nM; for `Cc1c(N2CCCCC2)nc2ccc(Br)cc2c1C(=O)NCC(CCC(=O)O)c1c(Cl)ccc(F)c1F` (single isomer, unassigned; (+)) [Example 146, (+)-5-({[6-Bromo-3-methyl-2-(piperidin-1-yl)quinolin-4-yl]carbonyl}amino)-4-(6-chloro-2,3-difluorophenyl)pentanoic acid]: 22 nM; for `Cc1ccc(F)cc1C(CCC(=O)O)CNC(=O)c1c(C)c(N2CCCCC2)nc2ccc(Br)cc12` (single isomer, unassigned; (+)) [Example 149, (+)-5-({[6-Bromo-3-methyl-2-(piperidin-1-yl)quinolin-4-yl]carbonyl}amino)-4-(5-fluoro-2-methylphenyl)pentanoic acid]: 13 nM.
The same measure for `Cc1c(N2CCCCC2)nc2ccc(Br)cc2c1C(=O)NCC(CCC(=O)O)c1c(F)cccc1C(F)(F)F` (single isomer, unassigned; (+)) [Example 162, (+)-5-({[6-Bromo-3-methyl-2-(piperidin-1-yl)quinolin-4-yl]carbonyl}amino)-4-[2-fluoro-6-(trifluoromethyl)phenyl]pentanoic acid]: 42 nM.
Consider `Cc1c(N2CCCC2)nc2ccc(Br)cc2c1C(=O)NCC(CCC(=O)O)c1c(F)cccc1C(F)(F)F` (single isomer, unassigned; (+)) [Example 164, (+)-5-({[6-Bromo-3-methyl-2-(pyrrolidin-1-yl)quinolin-4-yl]carbonyl}amino)-4-[2-fluoro-6-(trifluoromethyl)phenyl]pentanoic acid], for which the IC50 was 80 nM.
For the compound `Cc1c(N2CCCC(F)(F)C2)nc2ccc(Br)cc2c1C(=O)NCC(CCC(=O)O)c1c(F)cccc1C(F)(F)F` (single isomer, unassigned; (+)) [Example 168, (+)-5-({[6-Bromo-2-(3,3-difluoropiperidin-1-yl)-3-methylquinolin-4-yl]carbonyl}amino)-4-[2-fluoro-6-(trifluoromethyl)phenyl]pentanoic acid], the IC50 was 90 nM.
The same measure for `Cc1c(N2CCCCC2)nc2ccc(Br)cc2c1C(=O)NCC(CCC(=O)O)c1c(Cl)ccc(Cl)c1Cl` (single isomer, unassigned; (+)) [Example 172, (+)-5-({[6-Bromo-3-methyl-2-(piperidin-1-yl)quinolin-4-yl]carbonyl}amino)-4-(2,3,6-trichlorophenyl)pentanoic acid]: 41 nM; for `Cc1c(N2CCCC(F)(F)C2)nc2ccc(Br)cc2c1C(=O)NCC(CCC(=O)O)c1c(Cl)ccc(Cl)c1Cl` (single isomer, unassigned; (+)) [Example 178, (+)-5-({[6-Bromo-2-(3,3-difluoropiperidin-1-yl)-3-methylquinolin-4-yl]carbonyl}amino)-4-(2,3,6-trichlorophenyl)pentanoic acid]: 56 nM; for `Cc1c(N2CCCCC2)nc2ccc(Br)cc2c1C(=O)NCC(CCC(=O)O)c1c(F)cccc1OC(F)F` (single isomer, unassigned; (+)) [Example 184, (+)-5-({[6-Bromo-3-methyl-2-(piperidin-1-yl)quinolin-4-yl]carbonyl}amino)-4-[2-(difluoromethoxy)-6-fluorophenyl]pentanoic acid]: 13 nM.
The same measure for `Cc1c(N2CCCC(F)C2)nc2ccc(Br)cc2c1C(=O)NCC(CCC(=O)O)c1ccccc1Cl` (single isomer, unassigned; (+)) [Example 187, (+)-5-[({6-Bromo-2-[3-fluoropiperidin-1-yl]-3-methylquinolin-4-yl}carbonyl)amino]-4-(2-chlorophenyl)pentanoic acid]: 24 nM; for `Cc1c(N2CCCC(F)C2)nc2ccc(Br)cc2c1C(=O)NCC(CCC(=O)O)c1ccccc1Cl` (single isomer, unassigned; (+)) [Example 188, (+)-5-[({6-Bromo-2-[3-fluoropiperidin-1-yl]-3-methylquinolin-4-yl}carbonyl)amino]-4-(2-chlorophenyl)pentanoic acid]: 6.1 nM; for `Cc1c(N2CCCC(F)C2)nc2ccc(Br)cc2c1C(=O)NCC(CCC(=O)O)c1ccccc1C(F)(F)F` (single isomer, unassigned; (+)) [Example 189, (+)-5-[({6-Bromo-2-[3-fluoropiperidin-1-yl]-3-methylquinolin-4-yl}carbonyl)amino]-4-[2-(trifluoromethyl)phenyl]pentanoic acid]: 25 nM.
The same measure for `Cc1c(N2CCCC(F)C2)nc2ccc(Br)cc2c1C(=O)NCC(CCC(=O)O)c1ccccc1C(F)(F)F` (single isomer, unassigned; (+)) [Example 190, (+)-5-[({6-Bromo-2-[3-fluoropiperidin-1-yl]-3-methylquinolin-4-yl}carbonyl)amino]-4-[2-(trifluoromethyl)phenyl]pentanoic acid]: 11 nM.
Turning to `CCC1CCCN(c2nc3ccc(Br)cc3c(C(=O)NCC(CCC(=O)O)c3ccccc3C(F)(F)F)c2C)C1` (single isomer, unassigned; (+)) [Example 193, (+)-5-[({6-Bromo-2-[3-ethylpiperidin-1-yl]-3-methylquinolin-4-yl}carbonyl)amino]-4-[2-(trifluoromethyl)phenyl]pentanoic acid], the IC50 stood at 0.62 nM.
As for `CCC1CCCN(c2nc3ccc(Br)cc3c(C(=O)NCC(CCC(=O)O)c3ccccc3C(F)(F)F)c2C)C1` (single isomer, unassigned; (+)) [Example 196, (+)-5-[({6-Bromo-2-[3-ethylpiperidin-1-yl]-3-methylquinolin-4-yl}carbonyl)amino]-4-[2-(trifluoromethyl)phenyl]pentanoic acid], the figure is 2.6 nM.
